According to US10072025B2, “Ethyl N-boc piperidinyl pyrazolo pyridones as Janus kinase inhibitors” (Merck Sharp & Dohme Corp., priority 2014, dated 2018):

Assays:
JAK1 = JAK1 (Homo sapiens (Human), UniProt P23458); assay: Jak Biochemical HTRF Assay (JAK1); conditions: recombinant purified GST-tagged catalytic domain; HTRF; [ATP] 31.8 μM; [E] 1.405 nM
Experimental: (§1) Jak Biochemical HTRF Assay Protocol
(§2) The ability of compounds to inhibit the activity of JAK1, JAK2, JAK3, and Tyk2 was measured using a recombinant purified GST-tagged catalytic domain for each enzyme (Invitrogen JAK1 #M4290, JAK2 #M4290, JAK3 #M4290, Tyk2 #M4290) in an HTRF format biochemical assay. […] The basic assay protocol is as follows: First, 250 nL of diluted compounds in DMSO were dispensed into the wells of a dry 384-well Black plate (Greiner #781076) using a Labcyte Echo 555 acoustic dispenser. Subsequent reagent additions employed an Agilent Bravo. Next, 18 μL of 1.11× enzyme and 1.11× substrate in 1× assay buffer (Invitrogen kinase buffer # PV3189, 2 mM DTT, 0.05% BSA) were added to the wells and shaken and then preincubated for 30 minutes at room temperature to allow compound binding to equilibrate. After equilibration, 2 μL of 10×ATP in 1× assay buffer was added to initiate the kinase reaction and the plates were shaken and then incubated at room temperature for 120 minutes. At the end of the incubation, 20 μL of 2× stop buffer (streptavidin-Dylight 650 (Thermo #84547B/100 mL), Eu-tagged pY20 antibody (Perkin Elmer #AD0067), EDTA, HEPES, and Triton) was added to quench the reaction. Plates were shaken and centrifuged and then incubated 60 minutes at room temperature and then read on a Perkin Elmer Envision (Xex=337 nm, λem=665 and 615 nm, TRF delay time=20 μs). HTRF signal=10,000*665 nm reading/615 nm reading. After normalization to untreated controls, the percent inhibition of the HTRF signal at each compound concentration was calculated. The plot of percent inhibition versus the log of compound concentration was fit with a 4-parameter dose response equation to calculate IC50 values.

JAK2 = JAK2 (Homo sapiens (Human), UniProt O60674); assay: Jak Biochemical HTRF Assay (JAK2); conditions: recombinant purified GST-tagged catalytic domain, [ATP] 8.5 μM, [E] 0.052 nM
Sequence of JAK2 (O60674 849-1124): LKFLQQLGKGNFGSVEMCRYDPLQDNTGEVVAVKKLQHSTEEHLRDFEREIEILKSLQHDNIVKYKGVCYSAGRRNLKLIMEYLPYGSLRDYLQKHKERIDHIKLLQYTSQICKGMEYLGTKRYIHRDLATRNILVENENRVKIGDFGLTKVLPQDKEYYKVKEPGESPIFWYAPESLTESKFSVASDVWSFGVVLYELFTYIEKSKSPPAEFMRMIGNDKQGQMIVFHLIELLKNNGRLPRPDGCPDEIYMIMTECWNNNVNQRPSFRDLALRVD
Experimental: as §1, §2

Sequence of JAK1 (P23458 875-1153): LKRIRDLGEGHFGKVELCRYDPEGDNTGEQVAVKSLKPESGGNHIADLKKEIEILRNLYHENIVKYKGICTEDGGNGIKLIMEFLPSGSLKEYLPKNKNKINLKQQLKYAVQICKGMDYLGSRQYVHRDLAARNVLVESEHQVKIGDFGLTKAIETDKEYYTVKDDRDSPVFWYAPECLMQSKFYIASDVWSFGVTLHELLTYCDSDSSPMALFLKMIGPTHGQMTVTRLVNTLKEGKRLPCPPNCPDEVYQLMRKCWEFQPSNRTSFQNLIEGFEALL

Row | Structure (SMILES) | IC50 (JAK1) [nM] | IC50 (JAK2) [nM]
1 | CCC1(n2nc(Nc3ccc(C(=O)N4CCCC4)c(C)c3)c3c(=O)[nH]ccc32)CCN(C(=O)OC(C)(C)C)CC1 [Example 2-33, tert-butyl 4-ethyl-4-(3-(3-methyl-4-(pyrrolidine-1-carbonyl)phenylamino)-4-oxo-4,5-dihydropyrazolo[4,3-c]pyridin-1-yl) piperidine-1-carboxylate] | 0.73 | 1.06
2 | CCC1(n2nc(Nc3ccc(C(C)(OC)C(F)(F)F)cc3)c3c(=O)[nH]ccc32)CCN(C(=O)OC(C)(C)C)CC1 (stereo not drawn) [Example 2-41] | 4.4 | 6.87
3 | CCc1cc(Nc2nn(C3(CC)CCN(C(=O)OC(C)(C)C)CC3)c3cc[nH]c(=O)c23)ccc1C(=O)N1CCSCC1 [Example 2-29, tert-butyl 4-ethyl-4-(3-(3-ethyl-4-(thiomorpholine-4-carbonyl)phenylamino)-4-oxo-4,5-dihydropyrazolo[4,3-c]pyridin-1-yl) piperidine-1-carboxylate] | 1.79 | 2.72
4 | CCC1(n2nc(Nc3ccc(C(=O)N4CCCSCC4)c(C)c3)c3c(=O)[nH]ccc32)CCN(C(=O)OC(C)(C)C)CC1 [Example 3-9, tert-butyl 4-ethyl-4-(3-{[3-methyl-4-(1,4-thiazepan-4-ylcarbonyl)phenyl]amino}-4-oxo-4,5-dihydro-1H-pyrazolo[4,3-c]pyridin-1-yl) piperidine-1-carboxylate] | 0.79 | 1.05
5 | CCC1(n2nc(Nc3ccc(C(=O)N4CCSCC4)c(C(F)F)c3)c3c(=O)[nH]ccc32)CCN(C(=O)OC(C)(C)C)CC1 [Example 2-25, tert-butyl 4-(3-(3-(difluoromethyl)-4-(thiomorpholine-4-carbonyl)phenylamino)-4-oxo-4,5-dihydropyrazolo[4,3-c]pyridin-1-yl)-4-ethylpiperidine-1-carboxylate] | 1.73 | 2.8
6 | CCC1(n2nc(Nc3ccc(C(=O)N4CCC(F)(F)CC4)c(C)c3)c3c(=O)[nH]ccc32)CCN(C(=O)OC(C)(C)C)CC1 [Example 2-26, tert-butyl 4-(3-(4-(4,4-difluoropiperidine-1-carbonyl)-3-methylphenylamino)-4-oxo-4,5-dihydropyrazolo [4,3-c]pyridin-1-yl)-4-ethylpiperidine-1-carboxylate] | 1.19 | 1.44
7 | CCC1(n2nc(Nc3ccc(C(=O)N4CCOC[C@H]4C(C)C)c(C)c3)c3c(=O)[nH]ccc32)CCN(C(=O)OC(C)(C)C)CC1 [Example 3-8, tert-butyl 4-ethyl-4-{3-[(3-methyl-4-{[(3R)-3-(1-methylethyl)morpholin-4-yl]carbonyl}phenyl)amino]-4-oxo-4,5-dihydro-1H-pyrazolo[4,3-0]pyridin-1-yl} piperidine-1-carboxylate] | 0.93 | 1.01
8 | CCC1(n2nc(Nc3ccc(C(=O)N4CCCOCC4)c(C)c3)c3c(=O)[nH]ccc32)CCN(C(=O)OC(C)(C)C)CC1 [Example 3-10, tert-butyl 4-ethyl-4-(3-{[3-methyl-4-(1,4-oxazepan-4-ylcarbonyl)phenyl]amino}-4-oxo-4,5-dihydro-1H-pyrazolo[4,3-c]pyridin-1-yl) piperidine-1-carboxylate] | 0.29 | 0.43
9 | CCC1(n2nc(Nc3ccc(C(C)(O)C(F)(F)F)cc3)c3c(=O)[nH]ccc32)CCN(C(=O)OC(C)(C)C)CC1 (stereo not drawn) [Example 2-42, tert-butyl 4-ethyl-4-(4-oxo-3-((4-(1,1,1-trifluoro-2-hydroxypropan-2-yl)phenyl)amino)-4,5-dihydro-1H-pyrazolo[4,3-c]pyridin-1-yl) piperidine-1-carboxylate] | 1.65 | 4.62

The remaining lines, values ahead:

Row | IC50 (JAK1) [nM] | IC50 (JAK2) [nM] | Structure (SMILES)
10 | 0.19 | 0.25 | CCC1(n2nc(Nc3ccc(C(=O)N4CC[S+]([O-])CC4)c(C)c3)c3c(=O)[nH]ccc32)CCN(C(=O)OC(C)(C)C)CC1 [Example 3-11, tert-butyl 4-ethyl-4-[3-({3-methyl-4-[(1-oxidothiomorpholin-4-yl)carbonyl]phenyl}amino)-4-oxo-4,5-dihydro-1H-pyrazolo[4,3-c]pyridin-1-yl]piperidine-1-carboxylate]
11 | 1.23 | 0.89 | CCC1(n2nc(Nc3ccc(C(=O)N4CCOCC(C)C4)c(C)c3)c3c(=O)[nH]ccc32)CCN(C(=O)OC(C)(C)C)CC1 (single isomer, unassigned) [Example 3-19, tert-butyl 4-ethyl-4-[3-({3-methyl-4-[(6R or 6S-methyl-1,4-oxazepan-4-yl)carbonyl]phenyl}amino)-4-oxo-4,5-dihydro-1H-pyrazolo [4,3-c]pyridin-1-yl] piperidine-1-carboxylate]
12 | 2.86 | 3.4 | CCC1(n2nc(Nc3ccc4c(c3)CN(C(C)(C)C)S4(=O)=O)c3c(=O)[nH]ccc32)CCN(C(=O)OC(C)(C)C)CC1 [Example 1-2]
13 | 0.99 | 0.53 | CCC1(n2nc(Nc3ccc(C(=O)N4CCOCC(C)C4)c(C)c3)c3c(=O)[nH]ccc32)CCN(C(=O)OC(C)(C)C)CC1 (single isomer, unassigned) [Example 3-20, tert-butyl 4-ethyl-4-[3-({3-methyl-4-[(6R or 6S-methyl-1,4-oxazepan-4-yl)carbonyl]phenyl}amino)-4-oxo-4,5-dihydro-1H-pyrazolo[4,3-c]pyridin-1-yl] piperidine-1-carboxylate]
14 | 0.37 | 0.56 | CCC1(n2nc(Nc3ccc(C4CCN(C)CC4)cc3)c3c(=O)[nH]ccc32)CCN(C(=O)OC(C)(C)C)CC1 [Example 2-4, tert-butyl 4-ethyl-4-(3-(4-(1-methylpiperidin-4-yl)phenylamino)-4-oxo-4,5-dihydropyrazolo[4,3-c]pyridin-1-yl) piperidine-1-carboxylate]
15 | 2.82 | 3.55 | CCC1(n2nc(Nc3ccc([C@]4(C(F)(F)F)CCCN4)cc3)c3c(=O)[nH]ccc32)CCN(C(=O)OC(C)(C)C)CC1 (single isomer, unassigned) [Example 2-35, (S or R)-tert-butyl 4-ethyl-4-(4-oxo-3-(4-(2-(trifluoromethyl)pyrrolidin-2-yl)phenylamino)-4,5-dihydropyrazolo[4,3-c]pyridin-1-yl) piperidine-1-carboxylate]
16 | 0.2 | 0.4 | CCC1(n2nc(Nc3ccc(S(=O)(=O)N(C)C)cc3)c3c(=O)[nH]ccc32)CCN(C(=O)OC(C)(C)C)CC1 [Example 1-1, tert-butyl 4-(3-(4-(N,N-dimethylsulfamoyl)phenylamino)-4-oxo-4,5-dihydropyrazolo[4,3-c]pyridin-1-yl)-4-ethylpiperidine-1-carboxylate]
17 | 0.3 | 0.43 | CCC1(n2nc(Nc3ccc(C(=O)N4CC5(COC5)C4)c(C)c3)c3c(=O)[nH]ccc32)CCN(C(=O)OC(C)(C)C)CC1 [Example 2-14, tert-butyl 4-ethyl-4-(3-((3-methyl-4-(2-oxa-6-azaspiro[3.3]heptane-6-carbonyl)phenyl)amino)-4-oxo-4,5-dihydro-1H-pyrazolo [4,3-c]pyridin-1-yl) piperidine-1-carboxylate]
18 | 0.47 | 0.84 | CCc1cc(Nc2nn(C3(CC)CCN(C(=O)OC(C)(C)C)CC3)c3cc[nH]c(=O)c23)ccc1C(=O)N1CCOCC1 [Example 2-24, tert-butyl 4-ethyl-4-(3-((3-ethyl-4-(morpholine-4-carbonyl)phenyl)amino)-4-oxo-4,5-dihydro-1H-pyrazolo[4,3-c]pyridin-1-yl) piperidine-1-carboxylate]
19 | 0.4 | 0.43 | CCC1(n2nc(Nc3ccc(C(=O)N4C[C@H]5C[C@@H]4CO5)c(C)c3)c3c(=O)[nH]ccc32)CCN(C(=O)OC(C)(C)C)CC1 [Example 2-15, tert-butyl 4-(3-((4-((1R,4R)-2-oxa-5-azabicyclo[2.2.1]heptane-5-carbonyl)-3-methylphenyl)amino)-4-oxo-4,5-dihydro-1H-pyrazolo[4,3-c]pyridin-1-yl)-4-ethylpiperidine-1-carboxylate]
20 | 0.47 | 0.49 | CCC1(n2nc(Nc3ccc(C(=O)N4CC5CCC(C4)O5)c(C)c3)c3c(=O)[nH]ccc32)CCN(C(=O)OC(C)(C)C)CC1 [Example 2-1, tert-butyl 4-(3-((4-(8-oxa-3-azabicyclo[3.2.1]octane-3-carbonyl)-3-methylphenyl)amino)-4-oxo-4,5-dihydro-1H-pyrazolo[4,3-c]pyridin-1-yl)-4-ethylpiperidine-1-carboxylate]
21 | 0.36 | 0.44 | CCC1(n2nc(Nc3ccc(C(=O)N4C[C@@H]5C[C@H]4CO5)c(C)c3)c3c(=O)[nH]ccc32)CCN(C(=O)OC(C)(C)C)CC1 [Example 2-22, tert-butyl 4-(3-(4-((1S,4S)-5-oxa-2-aza-bicyclo[2.2.1]heptane-2-carbonyl)-3-methylphenylamino)-4-oxo-4,5-dihydropyrazolo[4,3-c]pyridin-1-yl)-4-ethylpiperidine-1-carboxylate]
